Patent publication US8377934B2, “Use of stilbene derivatives for treatment and prevention of aquatic mold infections” (State of Israel, Ministry of Agriculture & Rural …, priority 2006, dated 2013)
≈ marks a conversion by molar mass, not a printed value. Where two headings read alike, the source gives them in different places.

Assays:
[1] = tested on: S. parasitica CBS 540.67; assay: Agar-dilution susceptibility testing (filamentous hyphae); type: cell-based, Saprolegnia parasitica; settings: S. parasitica CBS 540.67, 24 h, 15-20° C., geometric mean of three tests; for MIC: Saprolegnia parasitica, CBS540, read-out: MIC, Agar-dilution
[2] = tested on: S. parasitica T-1; assay: as above; type: cell-based, Saprolegnia parasitica; settings: S. parasitica T-1, 24 h, 15-20° C., geometric mean of three tests; for MIC: Saprolegnia parasitica, read-out: MIC, Agar-dilution
Experimental: (§1) Two methods were used, each suitable for a different phase of the asexual life cycle of Saprolegnia spp.: i) the broth macrodilution method, for determination of susceptibility of zoospores and cysts; and ii) the agar-dilution method for determination of susceptibility of filamentous hyphae. Each compound was tested three times in each method. Malachite Green was used as positive control.
Twofold serial dilutions were prepared in double distillated sterile water with final drug concentrations ranging from 10,000 to 0.01 mg/L in a final volume of 1.0 ml. […] The mixture was vortexed, and poured into small plates. After agar solidification a small measured piece, taken from a 7-10 day old culture of S. parasitica T-1 on GP-PS medium was placed upside down on each plate. The plates were incubated at room temperature (15-20° C.) for 24 h.

[3] = tested on: S. parasitica CBS 540.67; assay: Broth macrodilution susceptibility testing (zoospores and cysts); type: cell-based, Saprolegnia parasitica; settings: S. parasitica CBS 540.67, 24 h, 15-20° C., geometric mean of three tests; for MIC: Saprolegnia parasitica, CBS540, read-out: MIC, Macrodilution
Experimental: as §1
(§2) This method is a modification of the method used for molds according to EUCAST 7.1 (European Committee on Antibiotic Susceptibility Testing) and CLSI/NCCLS M27-A2 (Clinical Laboratory Standards Institute/National Committee for Clinical Laboratory Standards). For inoculum preparation, S. parasitica isolates were cultured on GP-PS for 7 days with sterile clover seeds at 18° C. […] Cysts and zoospores free from hyphae were collected, and an inoculum of ˜10^3 CFU/ml as measured by hemacytometer counting, was prepared in RPMI. Fluorescent Brightener 28 stock solution was prepared by adding 40% KOH gradually to a 10 mg/ml solution in water, until it was clear, then it was filtered twice through a 0.2 μm cellulose acetate nonpyrogenic sterile filter (Schleicher & Schuell, Dassel, Germany).
(§3) Final drug concentrations in the test tubes ranged from 1×10^4 to 0.01 mg/L. Inoculum of 0.9 ml was added to each of a sterile tube containing 0.1 ml of the serially diluted drug. Two tubes containing drug-free medium and two tubes containing drug-free inoculum were used as controls. The inoculated tubes were incubated at room temperature (15-20° C.) for 24 h. The growth in each tube was then evaluated visually.

[4] = tested on: S. parasitica T-1; assay: as above; type: cell-based, Saprolegnia parasitica; settings: S. parasitica T-1, 24 h, 15-20° C., geometric mean of three tests; for MIC: Saprolegnia parasitica, read-out: MIC, Macrodilution
Experimental: as §1, §2, §3

[5] = tested on: S. parasitica; assay: In vitro susceptibility of S. parasitica in Table 4; type: cell-based, Saprolegnia parasitica; settings: for MIC: Saprolegnia parasitica
Experimental: The in vitro susceptibility of Saprolegnia parasitica T-1 and S. parasitica CBS 540.67 to various compounds was determined by the agar-dilution and broth macrodilution methods.
as §1
This method is a modification of the method used for molds according to EUCAST 7.1 (European Committee on Antibiotic Susceptibility Testing) and CLSI/NCCLS M27-A2 (Clinical Laboratory Standards Institute/National Committee for Clinical Laboratory Standards). For inoculum preparation, S. parasitica isolates were cultured on GP-PS for 7 days with sterile clover seeds at 18° C. Clover seeds (˜20) covered with mycelium were removed and added to 40 ml of RPMI-1640 broth medium (Sigma; prepared according to NCCLS instructions) and incubated at 18° C. for 4-7 days. Cysts and zoospores free from hyphae were collected, and an inoculum of ˜10^3 CFU/ml as measured by hemacytometer counting, was prepared in RPMI. Fluorescent Brightener 28 stock solution was prepared by adding 40% KOH gradually to a 10 mg/ml solution in water, until it was clear, then it was filtered twice through a 0.2 μm cellulose acetate nonpyrogenic sterile filter (Schleicher & Schuell, Dassel, Germany).
as §3, with “Twofold serial dilutions of the resulting stock solutions were set in RPMI-1640 medium in a volume of 0.1 ml. Final” for “Final”
This method is a modification of the method presented by Bailey (Bailey, T. A. (1983) Prog. Fish Cult. 45:24-27), and was used for the susceptibility testing of Saprolegnia hyphae. Twofold serial dilutions were prepared in double distillated sterile water with final drug concentrations ranging from 10,000 to 0.01 mg/L in a final volume of 1.0 ml. Melted (56° C.) RPMI-1640 agar medium (Sigma) was prepared according to NCCLS instructions, and then added to each tube containing drug or water control. The mixture was vortexed, and poured into small plates. After agar solidification a small measured piece, taken from a 7-10 day old culture of S. parasitica T-1 on GP-PS medium was placed upside down on each plate. The plates were incubated at room temperature (15-20° C.) for 24 h.

[6] = tested on: tilapia; assay: in vivo
Experimental: (§4) LC50 values were determined by static short-term tests as a measure of the relative acute lethal toxicity for tilapia (Standard methods for the evaluation of water and wastewater (1985) 16th ed. American Public Health Association, Washington, D.C. p. 689-819).
(§5) Hybrid tilapia (Oreochromis niloticus X Oreochromis aureus) having an average weight of 20 g, were kept in 100 liter polyethylene tanks at a density of 1 fish per 10 liters, at a constant temperature of 21° C. for three weeks before the initiation of the experiment by addition of a test compound to each tank. […] For the latter experiments, fish were acclimated to the required temperature for three weeks prior to addition of the test compound to the tank. Fish were treated with 5 different concentrations of each test compound, determined according to the MIC values of each compound.
(§6) Mortality of fish was recorded up to 96 h. Water parameters (O2, NH4^+, NO2^−, pH and Cl^−) were monitored throughout the experiment and were maintained within acceptable limits. The presented results are the mean of two separate experiments.

[7] = in vivo; settings: hybrid tilapia (Oreochromis niloticus X Oreochromis aureus), in vivo, LC50
Experimental: as §4, §5, §6

[8] = method and isolate not separated, read-out: MIC
[9] = Table 4 summary, read-out: Activity in vitro (MIC), value

Molecule	MIC, Agar-dilution [1] [µg/mL]	MIC, Agar-dilution [2] [µg/mL]	MIC, Macrodilution [3]	MIC, Macrodilution [4]	MIC [1] [µg/mL]	MIC [2] [µg/mL]	MIC [3] [µg/mL]	MIC [4] [µg/mL]	other results
CCCCCCCCCCCCCCCC[N+](C)(C)C.[Br-] [CTAB]	50	10	5 mg/L	5 mg/L					
O=C([O-])[O-].O=C([O-])[O-].OO.OO.OO.[Na+].[Na+].[Na+].[Na+] [Sodium percarbonate]			2.5 mg/L	5 mg/L					Activity in vitro (MIC), grade ([5]; Table 4 summary): High; Activity in vitro (MIC), value ([5]; Table 4 summary): (10 mg/L); Toxicity ([6]; Table 4 summary): High (in (high = 50 ppm)
C=CCOC(Cn1ccnc1)c1ccc(Cl)cc1Cl (stereo not shown) [Enilconazole]					5 (≈ 16.8 µM)	5 (≈ 16.8 µM)	1 (≈ 3.36 µM)	1 (≈ 3.36 µM)	
OO [Hydrogen peroxide]							8 (≈ 235 µM)	10 (≈ 294 µM)	MIC [5, 8]: ≤ 10 µg/mL; MIC [5, 9]: 10 µg/mL (≈ 294 µM); Activity in vitro (MIC), grade ([5]; Table 4 summary): High; LC50 [7]: 75 µg/mL (≈ 2200 µM); Toxicity ([6]; in vivo): Moderate (key: High: high = 50 ppm; Moderate: moderate = 50-200 ppm; Low: low = >1000 ppm)
O=S(=O)([O-])c1cc(Nc2nc(Nc3ccccc3)nc(N(CCO)CCO)n2)ccc1C=Cc1ccc(Nc2nc(Nc3ccccc3)nc(N(CCO)CCO)n2)cc1S(=O)(=O)[O-].[Na+].[Na+] [Fluorescent Brightener 28]	5	5	2 mg/L	1 mg/L					
Tween ® 80	200	200	100 mg/L	100 mg/L					
Triton X-100	200	200	100 mg/L	50 mg/L					
O=[N+]([O-])C(Br)(CO)CO [Pyceze ®]					200 (≈ 1000 µM)	100 (≈ 500 µM)	100 (≈ 500 µM)	100 (≈ 500 µM)	MIC [5, 9]: 100 µg/mL (≈ 500 µM); Toxicity ([6]; Table 4 summary): Moderate (moderate = 50-200 ppm); LC50 values compared with respective MIC values ([6]; tilapia LC50 versus S. parasitica MIC): lower, similar or insignificantly different
C[C@@H]1CC[C@@]2(OC1)O[C@H]1[C@@H](O)[C@H]3[C@@H]4CC[C@H]5C[C@@H](O[C@@H]6O[C@H](CO)[C@H](O[C@@H]7O[C@H](CO)[C@@H](O)[C@H](O[C@@H]8OC[C@@H](O)[C@H](O)[C@H]8O)[C@H]7O[C@@H]7O[C@H](CO)[C@H](O)[C@H](O[C@@H]8O[C@H](CO)[C@@H](O)[C@H](O)[C@H]8O)[C@H]7O)[C@H](O)[C@H]6O)[C@H](O)C[C@]5(C)[C@H]4CC[C@]3(C)[C@H]1[C@@H]2C [Digitonin]					20 (≈ 16.3 µM)	10 (≈ 8.13 µM)	2.5 (≈ 2.03 µM)	2.5 (≈ 2.03 µM)	MIC [5, 8]: ≤ 10 µg/mL
[Cl-].[Na+] [Sodium chloride]			30,000 mg/L	30,000 mg/L					Activity in vitro (MIC), value ([5]; Table 4 summary): Low (30,000 mg/L
CCCCCCCCCCCCOS(=O)(=O)[O-].[Na+] [SDS, Sodium dodecylsulfate]					500	500	250	100	
C[C@@H]1[C@H](O)[C@@H](C)/C=C/C=C/C=C/C=C/C=C/C=C/C=C/[C@H](O[C@@H]2O[C@H](C)[C@@H](O)[C@H](N)[C@@H]2O)C[C@@H]2O[C@](O)(C[C@@H](O)C[C@@H](O)[C@H](O)CC[C@@H](O)C[C@@H](O)CC(=O)O[C@H]1C)C[C@H](O)[C@H]2C(=O)O [Amphotericin B]	2.5 (≈ 2.71 µM)	5 (≈ 5.41 µM)	0.25 mg/L (≈ 0.271 µM)	0.5 mg/L (≈ 0.541 µM)					Activity in vitro (MIC), grade ([5]; Table 4 summary): High; Activity in vitro (MIC), value ([5]; Table 4 summary): (0.1-0.5 mg/L); Toxicity ([6]; Table 4 summary): Moderate (moderate = 50-200 ppm)
